Results from paper PMC8333425, “Discovery of a dual Ras and ARF6 inhibitor from a GPCR endocytosis screen” (Nature Communications, 2021).
Where “and” joins values, the source holds several entries; their conditions need not be identical. Identical values can stand only once.

Assays:
Akt activation by EGFR = experiment: Western blot of EGFR-mediated Akt activation; format: cell-based, human; conditions: for AKT activation, EGFR (p-Akt over Akt): individual experiments
Protocol: HEK293SL cells (10^5 cells per well) were seeded in a poly-L-lysine-coated six-well plate and transiently transfected with 3 μg Flag-AT1R, HA-B2R or HA-β2AR and/or 500 ng Flag-MEK1-WT, Flag-MEK1-DD, Flag-BRAF-WT, Flag-BRAF-V600E, Flag-K-Ras-WT, Flag-K-Ras-G12V, HA-ARF6-WT, or HA-ARF6-T27N. Gαq/11 KO and βarr1/2 KO cells were seeded onto 100 mm dishes at a density of 10^6 cells per dish. Next day, cells were transfected with 3 μg AT1R alone or along with 500 ng of β-arrestin2 using PEI. After 18 h of transfection, cells were detached and re-seeded onto poly-L-lysine coated 12-well plates (~1.5–2 × 10^5cells/well) for subsequent experiments. Forty-eight hours post transfection, in a 37 °C water bath, cells were serum-starved for 30 min, pretreated with DMSO (0.1%) or compound 21/Rasarfin (50 µM or at indicated concentrations) for 30 min, then stimulated or not with the indicated ligand [AngII (1 µM), BK (1 µM), Iso (10 µM) or EGF (100 ng/ml)] at indicated times. Cells were put on ice, washed with PBS and solubilized in 2x laemmli buffer (250 mM Tris–HCl pH 6.8, 2% SDS (w/v), 10% glycerol (v/v), 0.01% bromophenol blue (w/v) and 5% β-mercaptoethanol (v/v)) by heating at 65 °C for 15 min. Lysates were resolved on 10 or 14% SDS-PAGE, transferred to nitrocellulose membranes and immunoblotted for p-ERK1/2, ERK1/2, p-Akt, Akt, HA, Myc, β-actin or FLAG. ImageLab 5.2 software was used to quantify the digital blots as fold of the phosphorylated protein over total protein, which were then normalized as indicated in the figure legends. Uncropped immunoblots are provided in the Source Data file.

PI3K/Akt = PI3K/Akt BRET sensor (Akt (PH)-RlucII / rGFP-CAAX), EGFR-mediated; format: cell-based, human
Protocol: HEK293SL cells were seeded at a density of 7.5 × 10^5 cells per 100-mm dish and 24 h later, transiently transfected as such. For receptor internalization experiments, cells were transfected with 0.12 μg AT1R-RlucII, B2R-RlucII, or β2AR-RlucII and 0.48 μg of either rGFP-CAAX (to assess removal from the PM) or rGFP-FYVE (to assess accumulation in the endosomes). For β-arrestin recruitment assays, cells were transfected with 0.48 μg of receptor-YFP along with 0.12 μg of β-arrestin-RlucII. For β-arrestin/AP-2 binding experiments, cells were transfected with 1 μg Flag-AT1R, 1 μg β2-Adaptin-YFP, and 0.12 μg β-arrestin2-RlucII. For G protein activation, cells were transfected with 3 μg of sp-Flag-AT1R along with either 4.5 μg of the Gαq-polycistronic BRET sensor or 0.24 μg of the Gαi3-RlucII and 0.6 μg of GFP10-Gγ2 and Gβ1 sensors or 0.12 μg PKN-RBD-RlucII and 0.48 μg of rGFP-CAAX. For PKC activation, cells were transfected with 3 μg of sp-Flag-AT1R and 0.18 μg of the PKC sensor. For GTPase activation experiments, cells were transfected with 1 μg Flag-AT1R, 0.48 μg of rGFP-CAAX, and either 0.12 μg of GGA3-PBD-RlucII, PAK-CRIB-RlucII or Raf-RBD-RlucII. For biosensor validation experiments, cells were additionally transfected with 500 ng Flag-K-Ras-WT, Flag-K-Ras-G12V, Flag-K-Ras-SOS-CAAX, HA-ARF6-WT, HA-ARF6-T27N, Myc-Rac1-WT, Myc-Rac1-Q61L or Myc-Rac1-T17N. For PI3K/Akt activation experiments, cells were transfected with 0.48 μg of rGFP-CAAX and 0.12 μg of Akt (PH)-RlucII. After 18 h of transfection, the media was replaced and cells were divided for subsequent experiments. Cells were detached and seeded onto poly-L-ornithine-coated 96-well flat white bottom plates (BrandTech Scientific) at a density of 2.5 × 10^4 cells per well in media. The next day, cells were washed once with Tyrode’s buffer (140 mM NaCl, 2.7 mM KCl, 1 mM CaCl2, 12 mM NaHCO3, 5.6 mM D-glucose, 0.5 mM MgCl2, 0.37 mM NaH2PO4, 25 mM HEPES, pH 7.4) and left in Tyrode’s buffer. For kinetics of β-arrestin recruitment or β-arrestin binding to receptor and AP-2 experiments, cells were serum starved for 30 min, pretreated with 21 (50 µM) or Barbadin (100 µM) for 30 min, stimulated with 100 nM AngII or 1 µM BK and BRET signals were monitored at indicated times using a Victor X Light plate reader (PerkinElmer). Coelenterazine H (final concentration of 5 µM) was added 3–5 min prior to BRET measurements. Filter set was 460/80 nm and 535/30 nm for detecting the RlucII Renilla luciferase (donor) and YFP (acceptor) light emissions, respectively. The BRET ratio was determined by calculating the ratio of the light emitted by YFP over the light emitted by the RlucII. For G protein activation, cells were serum starved, pretreated with compounds for 30 min, stimulated with 100 nM AngII for 2 min (Gαq, Gαi3, and Rho sensors) or 5 min (PKC sensor). For the kinetics of GTPase and PI3K/Akt activation, cells were serum starved, pretreated with 21 (50 µM) or Wortmannin (200 nM) for 30 min, stimulated with ligand (100 nM AngII or 100 ng/ml EGF) and BRET signals were monitored at indicated times. For concentration-response curves, cells were serum-starved, pretreated with various concentrations of compounds for 30 min and stimulated with ligand (100 nM AngII, 1 µM BK, 10 µM Isoproterenol (Iso) or 100 ng/ml EGF) in Tyrode’s buffer for 30 min for receptor internalization, 10 min for ARF6, 2 min for Rac and Rho activation and 5 min for Ras activation and PI3K/Akt activation. BRET signals were monitored using a Synergy2 (BioTek) microplate reader and coelenterazine 400a (final concentrations of 5 µM) added 3–5 min prior to BRET measurements. Filter set was 410/80 nm and 515/30 nm for detecting the RlucII Renilla luciferase (donor) and rGFP/GFP10 (acceptor) light emissions, respectively. The BRET ratio was determined by calculating the ratio of the light emitted by rGFP/GFP10 over the light emitted by the RlucII.

## CC(C)C(=O)N1CCN(c2ccc(NC(=O)c3cc4ccccc4o3)cc2Cl)CC1 [Compound 21]
Akt activation by EGFR; Homo sapiens, read-out: potency for inhibition of EGFR-mediated Akt (western blot)
  IC50: 4 to 5 µM
Akt activation by EGFR; Log [Comp 21] (M) -4.3
  AKT activation, EGFR (p-Akt over Akt): 12.9009 percent compared to DMSO and 28.9803 percent compared to DMSO and 32.6041 percent compared to DMSO
Akt activation by EGFR; Log [Comp 21] (M) -5
  AKT activation, EGFR (p-Akt over Akt): 21.4684 percent compared to DMSO and 57.877 percent compared to DMSO and 33.8957 percent compared to DMSO
Akt activation by EGFR; Log [Comp 21] (M) -5.3
  AKT activation, EGFR (p-Akt over Akt): 42.6879 percent compared to DMSO and 80.2621 percent compared to DMSO and 48.2006 percent compared to DMSO
Akt activation by EGFR; Log [Comp 21] (M) -6
  AKT activation, EGFR (p-Akt over Akt): 93.9059 percent compared to DMSO and 99.6926 percent compared to DMSO and 89.9021 percent compared to DMSO
Akt activation by EGFR; Log [Comp 21] (M) -6.3
  AKT activation, EGFR (p-Akt over Akt): 94.5153 percent compared to DMSO and 100.709 percent compared to DMSO and 97.0491 percent compared to DMSO
Akt activation by EGFR; Log [Comp 21] (M) -7
  AKT activation, EGFR (p-Akt over Akt): 104.373 percent compared to DMSO and 93.1512 percent compared to DMSO and 83.461 percent compared to DMSO
PI3K/Akt; Homo sapiens, read-out: potency for inhibition of EGFR-mediated Akt (BRET assay)
  IC50: 4 to 5 µM
PI3K/Akt; Log [Comp 21] (M) -4.30103
  EGF-promoted BRET: 0.039 and 0.07107 and 0.056
PI3K/Akt; Log [Comp 21] (M) -5.32288
  EGF-promoted BRET: 0.1533 and 0.2873 and 0.2883
PI3K/Akt; Log [Comp 21] (M) -6
  EGF-promoted BRET: 0.6727 and 0.6567 and 0.6163
PI3K/Akt; Log [Comp 21] (M) -6.32288
  EGF-promoted BRET: 0.7007 and 0.6398 and 0.6137
PI3K/Akt; Log [Comp 21] (M) -7
  EGF-promoted BRET: 0.7123 and 0.6372 and 0.6493
